Measurements: patent US7285282B2, “Mucin peptide with immunoenhancing properties” (University of Miami, priority 2001, dated 2007)
Where no end group is shown, it is not given here.

Key:
[1] = tested on: YAC-1; assay: NK cell assay, splenocytes pretreated with IEP, YAC-1 targets; type: cell-based, BALB/c mice; conditions: 10 μg IEP, 30-45 minutes pretreatment, 4-hour assay, FIG. 18
Text: As mentioned above, there is a unique 11 amino acid peptide present on the C-terminus of the MUC1/sec protein, but not on the MUC1/TM protein. […] We investigated the possible effects of the peptide on the cytotoxicity reaction. We tested it on yet another tumor model, i.e. the D1-DMBA-3 mammary tumor bearing mice. The DA-3 cell line was originally derived from this tumor, which is routinely passaged in vivo in our laboratory in the syngeneic BALB/c mice. […] The ability of this peptide to stimulate immune cells in a NK cell assay was tested. […] Therefore, to test for immunomodulatory activity of the immunoenhancing peptide (IEP), BALB/c splenocytes were pretreated for 30-45 minutes with 10 μg IEP and subsequently, chromium-labeled YAC-1 or EL-4 targets were added in a 4-hour assay as previously described (11).

[2] = tested on: DA-3/sec tumor targets; assay: Splenocyte cytotoxicity against DA-3/sec targets after in vitro MUC1/sec peptide; type: cell-based; conditions: peptide added in vitro for 5 days to splenocytes of normal and D1-DMBA-3 tumor bearing mice, FIG. 17
[3] = Toxicity in animals injected with the peptide; conditions: in vivo
[4] = tested on: DA-3/sec targets; assay: Effect of perforin inhibitor or anti-Fas antibody on killing by DA-3/sec primed splenocytes; type: cell-based, mice; conditions: FIG. 14, FIG. 15

Molecule | Cytotoxicity of normal splenocytes against YAC-1 [1] | Cytotoxicity against DA-3/sec tumor targets [2] | Toxicity in injected animals [3] | Effect on killing of DA-3/sec targets by primed splenocytes [4]
VSIGLSFPMLP [IEP] | elevation of cytotoxic levels | significant levels of cytotoxicity | No toxicity has been detected | 
C/C=C/[C@H]1O[C@@](O)([C@@H](C)[C@H](O)[C@H](C)[C@H]2OC(=O)/C(OC)=C/C(C)=C/[C@@H](C)[C@@H](O)[C@@H](CC)[C@@H](O)[C@H](C)C/C(C)=C/C=C/[C@@H]2OC)C[C@@H](O[C@H]2C[C@@H](O)[C@H](OC(N)=O)[C@@H](C)O2)[C@@H]1C [Concanamycin A] |  |  |  | effectively blocked killing of DA-3/sec targets in a dose-dependent manner
